These results are taken from US6359130B1, “Bridged indenopyrrolocarbazoles” (Cephalon, Inc., priority 1998, dated 2002).

Some results are limits rather than exact numbers.

Assay [1] addresses T1, VEGF receptor (human flk-1, KDR, VEGFR2) kinase domain (Homo sapiens, UniProt P35968).
T1 construct: VEGF receptor (human flk-1, KDR, VEGFR2) kinase domain; made in house; host or cells: baculovirus expression system
Description: Inhibition of VEGF receptor kinase activity (ELISA). It counts as biochemical. Conditions: 40 μM ATP; read-out: VEGFR kinase IC50. Here is the method:
Bridged indenopyrrolocarbazole compounds were examined for their inhibitory effects on the kinase activity of baculovirus-expressed VEGF receptor (human flk-1, KDR, VEGFR2) kinase domain using the procedure described for the trkA kinase ELISA assay described above. The kinase reaction mixture, consisting of 50 mM Hepes, pH 7.4, 40 μM ATP, 10 mM MnCl2, 0.1% BSA, 2% DMSO, and various concentrations of inhibitor, was transferred to PLC-γ/GST-coated plates. VEGFR kinase was added and the reaction was allowed to proceed for 15 min. at 37° C. Detection of phosphorylated product was accomplished by addition of anti-phosphotyrosine antibody (UBI). A secondary enzyme-conjugated antibody was delivered to capture the antibody-phosphorylated PLC-γ/GST complex. The activity of the bound enzyme was measured via an amplified detection system (Gibco-BRL). Inhibition data were analyzed using the sigmoidal dose-response (variable slope) equation in GraphPad Prism.

The target in assay [2] is T2, baculovirus-expressed human trkA cytoplasmic domain (Homo sapiens, UniProt P04629).
T2 construct: baculovirus-expressed human trka cytoplasmic domain; made in house; host or cells: baculovirus expression system
Description: Inhibition of trkA tyrosine kinase activity (ELISA-based assay). It counts as biochemical. Conditions: for IC50: 40 μM ATP; for inhibition at 0.3 µM: read-out: trkA % inh @ 300 nM. Here is the method: Selected bridged indenopyrrolocarbazole compounds were tested for their ability to inhibit the kinase activity of baculovirus-expressed human trka cytoplasmic domain using an ELISA-based assay as previously described (Angeles et al., Anal. Biochem. 236: 49-55, 1996). Briefly, the 96-well microtiter plate was coated with substrate solution (recombinant human phospholipase C-γl/glutathione S-transferase fusion protein (Rotin et al., EMBO J., 11: 559-567, 1992). Inhibition studies were performed in 100 μl assay mixtures containing 50 mM Hepes, pH 7.4, 40 μM ATP, 10 mM MnCl2, 0.1% BSA, 2% DMSO, and various concentrations of inhibitor. The reaction was initiated by addition of trkA kinase and allowed to proceed for 15 minutes at 37° C. An antibody to phosphotyrosine (UBI) was then added, followed by a secondary enzyme-conjugated antibody, alkaline phosphatase-labelled goat anti-mouse IgG (Bio-Rad). The activity of the bound enzyme was measured via an amplified detection system (Gibco-BRL). Inhibition data were analyzed using the sigmoidal dose-response (variable slope) equation in GraphPad Prism.

In assay [3] the test system is protein kinase C (mixed isozymes of a, b, g). Description: Inhibition of protein kinase C activity (Millipore Multiscreen TCA in-plate assay). Conditions: for PKC % Inh. @ 1 uM: values in parentheses; for IC50: read-out: PKC IC50. It counts as biochemical. Here is the method: Protein kinase C activity was assessed using the Millipore Multiscreen TCA “in-plate” assay as described in Pitt, A. M. and Lee, C. (J. Biomol. Screening, 1: 47-51, 1996). Assays were performed in 96-well Multiscreen-DP plates (Millipore). Each […] assay mixture contained 20 mM Hepes, pH 7.4, 10 mM MgCl2, 2.5 mM EGTA, 2.5 mM CaCl2, 80 mg/ml phosphatidyl serine, 3.2 mg/ml diolein, 200 mg/ml histone H-1(Fluka), 5 mM [γ-^32P]ATP, 1.5 ng protein kinase C (UBI; mixed isozymes of a, b, g), 0.1% BSA, 2% DMSO, and test bridged fused pyrrolocarbazole compound. The reaction was allowed to proceed for 10 min at 37° C., then quenched by adding ice cold 50% trichloroacetic acid. The plates were allowed to equilibrate for 30 min at 4° C., then washed with ice cold 25% TCA. Scintillation cocktail was added to the plates, and the radioactivity was determined using Wallac MicroBeta 1450 PLUS scintillation counter. The IC50 values were calculated by fitting the data to the sigmoidal dose-response (variable slope) equation in GraphPad Prism.

Assay [4] concerns the target T3, PDGFβ receptor kinase domain (Homo sapiens, UniProt P09619).
T3 construct: baculovirus-expresses PDGFβ receptor kinase domain; made in house; host or cells: baculovirus expression system
Description: Inhibition of PDGF receptor kinase activity (ELISA). It counts as biochemical. The conditions noted are these: for PDGFR % Inh. @ 1 μM / inhibition at 1 µM: values in parentheses; for inhibition at 1 µM: read-out: PDGFR % Inh. @ 1 μM; for IC50: 20 μM ATP, read-out: PDGFR IC50. Here is the method: Bridged indenopyrrolocarbazole compounds were examined for their inhibitory effects on the kinase activity of baculovirus-expresses PDGFβ receptor kinase domain using the trkA kinase ELISA described above. Assays were performed in substrate (PLC-γ/GST)-coated 96-well microtiter plates. Each 100-μl reaction mixture contained 50 mM HEPES, pH 7.4, 20 μM ATP, 10 mM MnCl2, 0.1% BSA, 2% DMSO, and various concentrations of inhibitor. The reaction was initiated by addition of prephosphorylated recombinant human enzyme (10 ng/ml PDGFRβ) and allowed to proceed for 15 minutes at 37° C. The prephosphorylated enzyme was prepared prior to use by incubation of the kinase in buffer containing 20 μM ATP and 10 mM MnCl2 for 1 hour at 4° C. Detection of phosphorylated product was done by adding horseradish peroxidase (HRP)-conjugated anti-phosphotyrosine antibody (UBI). The HRP substrate solution containing 3, 3′-5, 5′-tetramethylbenzidine and hydrogen peroxide was later added and the plates were incubated for 10 minutes at room temperature. The reaction was quenched with acid and the resulting absorbance was read at 450 nm using a Microplate Bio-kinetics Reader (Bio-Tek Instrument EL 312e). Inhibition data were analyzed using the sigmoidal dose-response (variable slope) equation in GraphPad Prism.

Assay [5] has as its target T4, trkA in NIH3T3 cells transfected with trkA (Homo sapiens, UniProt P04629).
T4 construct: expressed in transfected cells; host or cells: NIH3T3 cells
Put plainly: Inhibition of NGF-stimulated trk phosphorylation in a whole cell preparation. It counts as cell-based. Further details: key to Inhibition Score at 100 nM: 0=no decrease; 1=1-25%; 2=26-49%; 3=50-75%; 4=76-100%. The conditions noted are these: NGF 10 ng/ml, percent decrease in trk protein band; for Inhibition Score at 100 nM: 100 nM compound; for Inhibition Score at 1000 nM: 1000 nM compound. As for the experimental part:
NIH3T3 cells transfected with trkA were grown in 100 mm dishes. Subconfluent cells were serum-starved by replacing media with serum-free 0.05% BSA-DMEM containing compound (100 nM and 1 μM) or DMSO (added to controls) for one hour at 37° C. NGF (Harlan/Bioproducts for Science) was then added to the cells at a concentration of 10 ng/ml for 5 minutes. Cells were lysed in buffer containing detergent and protease inhibitors. Clarified cell lysates were normalized to protein using BCA method and immunoprecipitated with anti-trk antibody. Polyclonal anti-trk antibody was prepared against a peptide corresponding to the 14 amino acids at the carboxy terminus of trk (Martin-Zanca et al., Mol. Cell. Biol. 9: 24-33, 1989). The immune complexes were collected on Protein A Sepharose beads (Sigma Chem. Co., St. Lois, Mo.), separated by SDS polyacrylamide gel electrophoresis (SDS-PAGE), and transferred to a polyvinylidene difluoride (PVDF) membrane. The membrane was immunoblotted with anti-phosphotyrosine antibody (UBI), followed by incubation with horseradish peroxidase coupled goat anti-mouse IgG (Bio-Rad Laboratories, Hercules, Calif.). Phosphorylated proteins were visualized using ECL (Amersham Lite Science, Inc., Arlington Heights, Ill.). The area of the trk protein band was measured and compared to NGF-stimulated control. The inhibition scoring system used, based on percent decrease in trk protein band, was as follows: 0=no decrease; 1=1-25%; 2=26-49%; 3=50-75%; 4=76-100% Results are shown below in Table 3.

T4 sequence (P04629 33-796): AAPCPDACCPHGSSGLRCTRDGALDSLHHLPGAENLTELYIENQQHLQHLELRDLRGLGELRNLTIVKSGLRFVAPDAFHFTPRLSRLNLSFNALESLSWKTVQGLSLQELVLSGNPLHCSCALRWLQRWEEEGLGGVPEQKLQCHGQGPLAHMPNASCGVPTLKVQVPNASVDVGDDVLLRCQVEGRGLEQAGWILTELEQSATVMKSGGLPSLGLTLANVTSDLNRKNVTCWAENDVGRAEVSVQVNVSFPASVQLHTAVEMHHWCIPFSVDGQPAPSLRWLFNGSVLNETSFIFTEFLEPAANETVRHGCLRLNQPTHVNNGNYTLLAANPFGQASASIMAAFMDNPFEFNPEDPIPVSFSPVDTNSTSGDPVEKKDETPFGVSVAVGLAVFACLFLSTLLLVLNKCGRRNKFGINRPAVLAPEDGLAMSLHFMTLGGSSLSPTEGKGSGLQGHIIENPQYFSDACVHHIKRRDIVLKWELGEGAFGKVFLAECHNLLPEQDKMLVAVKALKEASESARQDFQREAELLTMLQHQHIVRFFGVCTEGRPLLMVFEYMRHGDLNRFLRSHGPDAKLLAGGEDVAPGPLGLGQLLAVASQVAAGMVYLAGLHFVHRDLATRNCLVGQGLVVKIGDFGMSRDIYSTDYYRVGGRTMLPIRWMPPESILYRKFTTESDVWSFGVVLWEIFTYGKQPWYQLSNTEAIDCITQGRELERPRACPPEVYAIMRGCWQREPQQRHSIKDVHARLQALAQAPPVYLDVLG
T3 sequence (P09619 600-962 limits assumed): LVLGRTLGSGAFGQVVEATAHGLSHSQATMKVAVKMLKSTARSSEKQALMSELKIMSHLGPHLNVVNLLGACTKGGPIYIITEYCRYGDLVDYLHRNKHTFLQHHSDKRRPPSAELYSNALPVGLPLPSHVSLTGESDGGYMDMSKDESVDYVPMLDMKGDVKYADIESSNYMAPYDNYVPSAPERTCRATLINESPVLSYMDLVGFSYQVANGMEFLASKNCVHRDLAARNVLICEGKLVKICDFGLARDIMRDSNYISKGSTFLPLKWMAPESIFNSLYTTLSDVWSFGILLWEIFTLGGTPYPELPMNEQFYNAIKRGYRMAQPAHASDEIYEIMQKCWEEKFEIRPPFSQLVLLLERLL
T1 sequence (P35968 834-1162 limits assumed): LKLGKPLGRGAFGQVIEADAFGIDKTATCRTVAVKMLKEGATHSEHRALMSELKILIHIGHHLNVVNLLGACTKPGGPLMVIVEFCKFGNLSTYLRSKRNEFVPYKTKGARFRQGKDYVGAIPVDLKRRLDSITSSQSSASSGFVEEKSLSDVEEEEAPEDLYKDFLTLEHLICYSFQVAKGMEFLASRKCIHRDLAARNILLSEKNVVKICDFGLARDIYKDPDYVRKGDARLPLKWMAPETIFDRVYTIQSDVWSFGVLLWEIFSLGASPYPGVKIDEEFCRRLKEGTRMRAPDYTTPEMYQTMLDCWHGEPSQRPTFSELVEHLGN
T2 sequence (P04629 440-796 limits assumed): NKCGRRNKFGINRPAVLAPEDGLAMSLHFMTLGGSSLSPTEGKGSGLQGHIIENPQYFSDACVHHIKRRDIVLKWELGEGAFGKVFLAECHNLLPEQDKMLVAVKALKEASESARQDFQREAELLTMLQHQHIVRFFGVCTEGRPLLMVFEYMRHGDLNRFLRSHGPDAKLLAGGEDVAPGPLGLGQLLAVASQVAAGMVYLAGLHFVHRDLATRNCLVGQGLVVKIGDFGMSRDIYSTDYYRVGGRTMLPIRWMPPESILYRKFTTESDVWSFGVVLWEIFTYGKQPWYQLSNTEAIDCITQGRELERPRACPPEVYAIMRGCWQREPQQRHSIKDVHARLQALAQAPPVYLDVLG

Turning to `O=C1NCc2c1c1c3c4c2c2ccccc2n4C2CCC(O2)C3c2ccccc2-1` (single isomer, unassigned) [II-1b], in assay [1], the IC50 is 67 nM.
In the case of `CC12CCCC(O1)n1c3ccccc3c3c4c(c5c(c31)C2c1ccccc1-5)C(=O)NC4` (single isomer, unassigned) [II-4a], the IC50 in assay [2] was found to be 76 nM; in assay [1] it was 17 nM. For the same molecule, the “PKC % Inh. @ 1 uM” value in assay [3] is reported as “(18) %”. In addition, the “PDGFR % Inh. @ 1 μM” value in assay [4] was “(0) %”.
With `CC12CCCC(O1)n1c3ccccc3c3c4c(c5c(c31)C2c1ccccc1-5)C(=O)NC4` (single isomer, unassigned) [II-4b], the IC50 turned out to be 16 nM in assay [2] and 184 nM in assay [1]. Besides, in assay [5], the “Inhibition Score at 100 nM” value was determined as 0. In assay [5], the “Inhibition Score at 1000 nM” value is recorded as 2 (2=26-49%). The “PKC % Inh. @ 1 uM” value in assay [3] was “(28) %”. Moreover, the “PDGFR % Inh. @ 1 μM” value in assay [4] is given as “(17) %”.
Regarding `CC12COCC(O1)n1c3ccccc3c3c4c(c5c(c31)C2c1ccccc1-5)C(=O)NC4` (single isomer, unassigned) [II-7a], the results for the IC50 in assay [2], in assay [1] and in assay [3] were 11 nM, 87 nM and 696 nM, respectively. Also, in assay [5], the “Inhibition Score at 100 nM” value is on record as 3 (3=50-75%). Moreover, in assay [5], the “Inhibition Score at 1000 nM” value was 4 (4=76-100%). For the same molecule, the “PDGFR % Inh. @ 1 μM” value in assay [4] is “(36) %”.
As to `CCC12c3ccccc3-c3c4c(c5c6ccccc6n(c5c31)C1CCC2O1)CNC4=O` (stereo not drawn) [II-2], the inhibition at 0.3 µM in assay [2] (300 nM, values in parentheses) was found to be 20%. The half-inhibitory concentration (IC50) in assay [1] was greater than 10000 nM. In addition, the “PKC % Inh. @ 1 uM” value in assay [3] is reported as “(−9) %”. In assay [4], the inhibition at 1 µM was found to be 7%.
Take `CC12CCC(O1)n1c3ccccc3c3c4c(c5c(c31)C2c1ccccc1-5)C(=O)NC4` (stereo not drawn) [II-3]: the figures for the IC50 in assay [2] and in assay [1] were 9 nM and 71 nM, respectively. For the same molecule, in assay [5], the “Inhibition Score at 100 nM” value is listed as 1 (1=1-25%). For the same molecule, the “Inhibition Score at 1000 nM” value in assay [5] is on record as 4 (4=76-100%). In assay [3], the “PKC % Inh. @ 1 uM” value is reported as “(23) %”. The “PDGFR % Inh. @ 1 μM” value in assay [4] is reported as “(28) %”.
Regarding `CC12CCC(O1)n1c3ccc(Br)cc3c3c4c(c5c(c31)C2c1ccccc1-5)C(=O)NC4` (stereo not drawn) [II-5], the IC50 in assay [2] was found to be 72 nM; in assay [1], 398 nM; in assay [4], 1080 nM. In addition, the “PKC % Inh. @ 1 uM” value in assay [3] is listed as “(37) %”.
With `CC12COCC(O1)n1c3ccccc3c3c4c(c5c(c31)C2c1ccccc1-5)C(=O)NC4` (stereo not drawn) [II-7b], the IC50 was determined as 5 nM in assay [2], 260 nM in assay [1] and 568 nM in assay [3]. Also, the “Inhibition Score at 100 nM” value in assay [5] was 3 (3=50-75%). Moreover, the “Inhibition Score at 1000 nM” value in assay [5] is 4 (4=76-100%). Also, the inhibition at 1 µM in assay [4] was determined as 34%.
Consider `O=C1NCc2c3c4c5c(c21)c1ccccc1n5C1CCC(O1)C4c1ccccc1-3` (stereo not drawn) [II-8], for which the IC50 in assay [2] turned out to be 254 nM; in assay [1], 26 nM; in assay [3] it was 1080 nM. Further, the inhibition at 1 µM in assay [4] is 15%.
Take `Nc1cccc(-c2ccc3c(c2)c2c4c(c5c6c2n3C2CCC(O2)C6c2ccccc2-5)C(=O)NC4)c1` (stereo not drawn) [II-9]: in assay [2] (300 nM, values in parentheses), the inhibition at 0.3 µM is 34%. Moreover, the IC50 in assay [1] came out at 318 nM. The “PKC % Inh. @ 1 uM” value in assay [3] was “(5) %”. For the same molecule, the inhibition at 1 µM in assay [4] amounted to 24%.
`O=C1NC(=O)c2c1c1c3c4c2c2ccccc2n4C2CCC(O2)C3(O)c2ccccc2-1` (stereo not drawn) [II-10]: the “trkA % inh @ 300 nM” value in assay [2] (300 nM, values in parentheses) is on record as “(17) %”. Also, the IC50 in assay [1] amounted to 601 nM. In addition, the “PKC % Inh. @ 1 uM” value in assay [3] is recorded as “(5) %”. Also, the “PDGFR % Inh. @ 1 μM” value in assay [4] is given as “(23) %”.
Turning to `CCOC(=O)C12CCC(O1)n1c3ccccc3c3c4c(c5c(c31)C2c1ccccc1-5)C(=O)NC4` (stereo not drawn) [II-11], the IC50 in assay [2] was 121 nM; in assay [1] it was 205 nM. Further, in assay [3], the “PKC % Inh. @ 1 uM” value is on record as “(19) %”. In addition, in assay [4], the “PDGFR % Inh. @ 1 μM” value is reported as “(15) %”.
For the molecule `O=C1NCc2c1c1c3c4c2c2ccccc2n4C2CCC(CO)(O2)C3c2ccccc2-1` (stereo not drawn) [II-12], the IC50 in assay [2] is 17 nM; in assay [1] it was 20 nM; in assay [3], 518 nM; in assay [4], 125 nM.
In the case of `COc1ccc2c(c1)-c1c3c(c4c5ccccc5n5c4c1C2C1CCC5O1)CNC3=O` (stereo not drawn) [II-13], the IC50 is 8 nM in assay [1], 576 nM in assay [3] and 1230 nM in assay [4].
